Source: patent US20260347338A1, “PYRIMIDINE/PYRIDINE DERIVATIVES OR SALTS THEREOF AND PHARMACEUTICAL COMPOSITIONS COMPRISING THE SAME” (YUHAN CORPORATION, priority 2023, published 2026)
Counter-ions that a name gives are not always drawn.

molecular target: T1, human recombinant HPK1 (Homo sapiens, UniProt Q92918); assay: Inhibitory activity against human recombinant HPK1 (TR-FRET); format: biochemical; conditions: ULight-p70S6K peptide, ATP at Km, room temperature, 1 hour, 0.32 to 1000 nM compound
T1 construct: purchased BPS Bioscience
T1 sequence (Q92918 whole entry): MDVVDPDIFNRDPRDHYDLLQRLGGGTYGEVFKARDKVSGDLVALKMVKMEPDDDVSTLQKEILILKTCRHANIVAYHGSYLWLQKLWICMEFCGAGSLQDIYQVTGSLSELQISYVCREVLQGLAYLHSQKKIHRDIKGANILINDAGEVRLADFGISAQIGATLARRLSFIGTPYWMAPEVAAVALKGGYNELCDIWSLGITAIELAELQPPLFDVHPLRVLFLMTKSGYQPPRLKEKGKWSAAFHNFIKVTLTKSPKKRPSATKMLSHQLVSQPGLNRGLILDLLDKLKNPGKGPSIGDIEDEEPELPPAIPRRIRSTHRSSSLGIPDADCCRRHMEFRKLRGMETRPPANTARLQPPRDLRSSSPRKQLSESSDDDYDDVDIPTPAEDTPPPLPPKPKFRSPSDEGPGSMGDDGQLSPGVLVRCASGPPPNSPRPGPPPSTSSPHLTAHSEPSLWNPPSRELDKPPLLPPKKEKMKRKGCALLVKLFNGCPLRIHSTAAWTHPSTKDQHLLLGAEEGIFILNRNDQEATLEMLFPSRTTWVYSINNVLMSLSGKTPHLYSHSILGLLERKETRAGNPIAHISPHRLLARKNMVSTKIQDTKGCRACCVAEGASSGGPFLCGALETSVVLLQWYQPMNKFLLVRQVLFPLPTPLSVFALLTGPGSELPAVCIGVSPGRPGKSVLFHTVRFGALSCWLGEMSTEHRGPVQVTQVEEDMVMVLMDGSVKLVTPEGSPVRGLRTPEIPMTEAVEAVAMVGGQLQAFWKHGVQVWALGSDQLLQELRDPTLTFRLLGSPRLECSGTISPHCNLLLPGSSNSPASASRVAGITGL
Outline: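 IC50 classes A–D use 10, 50 and 100 nM cut-offs, derived from TR-FRET signal inhibition relative to DMSO controls. Human recombinant HPK1 phosphorylated ULight-p70S6K peptide at Km ATP for 1 h, room temperature, pH 7.4; test range 0.32–1000 nM final, detection with Eu-labelled antibody after EDTA quench.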

Compound	IC50
COc1cc(F)cc(F)c1-c1nccc(Nc2cc(N3C[C@@H](N)C[C@H](F)C3)c(-c3cnn(C(C)C)c3)cn2)n1 [Example 336, N-(4-((3S,5S)-3-amino-5-fluoropiperidin-1-yl)-5-(1-isopropyl-1H-pyrazol-4-yl)pyridin-2-yl)-2-(2,4-difluoro-6-methoxyphenyl)pyrimidin-4-amine]	≤ 10 nM
COc1cccc(F)c1-c1nccc(Nc2cc(N3CCC[C@H](N)C3)c(-c3cnc4c(c3)OCC(=O)N4)cn2)n1 [Example 275, (S)-7-(4-(3-aminopiperidin-1-yl)-6-((2-(2-fluoro-6-methoxyphenyl)pyrimidin-4-yl)amino)pyridin-3-yl)-2H-pyrido[3,2-b][1,4]oxazin-3(4H)-one hydrochloride]	≤ 10 nM
COc1cccc(F)c1-c1nccc(Nc2cc(N3CCC[C@H](N)C3)c(-c3ccc4c(c3)OCC(=O)N4C)cn2)n1 [Example 261, (S)-7-(4-(3-aminopiperidin-1-yl)-6-((2-(2-fluoro-6-methoxyphenyl)pyrimidin-4-yl)amino)pyridin-3-yl)-4-methyl-2H-benzo[b][1,4]oxazin-3(4H)-one hydrochloride]	≤ 10 nM
COc1cccc(F)c1-c1nccc(Nc2cc(N3CCC(C(F)(F)F)CC3)c(-c3cnn(C4CCOCC4)c3)cn2)n1 [Example 87, 2-(2-fluoro-6-methoxyphenyl)-N-(5-(1-(tetrahydro-2H-pyran-4-yl)-1H-pyrazol-4-yl)-4-(4-(trifluoromethyl)piperidin-1-yl)pyridin-2-yl)pyrimidin-4-amine]	≤ 10 nM
COc1cccc(F)c1-c1nccc(Nc2cc(N3CCC[C@H](N)C3)c(-c3ccc(F)c(Cl)c3)cn2)n1 [Example 292, (S)-N-(4-(3-aminopiperidin-1-yl)-5-(3-chloro-4-fluorophenyl)pyridin-2-yl)-2-(2-fluoro-6-methoxyphenyl)pyrimidin-4-amine hydrochloride]	≤ 10 nM
COC(=O)c1cc(F)c(-c2nccc(Nc3cc(N4CCC[C@H](N)C4)c(-c4cnn(C(F)F)c4)cn3)n2)c(OC)c1 [Example 185, methyl (S)-4-(4-((4-(3-aminopiperidin-1-yl)-5-(1-(difluoromethyl)-1H-pyrazol-4-yl)pyridin-2-yl)amino)pyrimidin-2-yl)-3-fluoro-5-methoxybenzoate hydrochloride]	≤ 10 nM
COc1cc(F)cc(F)c1-c1nccc(Nc2cc(N3CCC[C@H](N)C3)c(-c3cnn(C(F)F)c3)cn2)n1 [Example 108, (S)-N-(4-(3-aminopiperidin-1-yl)-5-(1-(difluoromethyl)-1H-pyrazol-4-yl)pyridin-2-yl)-2-(2,4-difluoro-6-methoxyphenyl)pyrimidin-4-amine hydrochloride]	≤ 10 nM
COc1cc(F)cc(F)c1-c1nc(Nc2cc(N3CCC[C@H](O)C3)c(-c3cnn(C(F)F)c3)cn2)ccc1[N+](=O)[O-] [Example 183, (3S)-1-(2-((6-(2,4-difluoro-6-methoxyphenyl)-5-nitropyridin-2-yl)amino)-5-(1-(difluoromethyl)-1H-pyrazol-4-yl)pyridin-4-yl)piperidin-3-ol]	≤ 10 nM
COc1cc(F)cc(F)c1-c1nccc(Nc2cc(N3CCC[C@H](O)C3)c(-c3cnn(CC(F)F)c3)cn2)n1 [Example 172, (S)-1-(2-((2-(2,4-difluoro-6-methoxyphenyl)pyrimidin-4-yl)amino)-5-(1-(2,2-difluoroethyl)-1H-pyrazol-4-yl)pyridin-4-yl)piperidin-3-ol]	≤ 10 nM
COc1cccc(F)c1-c1nccc(Nc2cc(N3CCC[C@@H](N)C3)c(-c3cnn(CC(F)(F)F)c3)cn2)n1 [Example 77, (R)-N-(4-(3-aminopiperidin-1-yl)-5-(1-(2,2,2-trifluoroethyl)-1H-pyrazol-4-yl)pyridin-2-yl)-2-(2-fluoro-6-methoxyphenyl)pyrimidin-4-amine hydrochloride]	≤ 10 nM
COc1cccc(F)c1-c1nccc(Nc2cc(N3CCC[C@H](N)C3)c(-c3cnn(CC(F)(F)F)c3)cn2)n1 [Example 78, (S)-N-(4-(3-aminopiperidin-1-yl)-5-(1-(2,2,2-trifluoroethyl)-1H-pyrazol-4-yl)pyridin-2-yl)-2-(2-fluoro-6-methoxyphenyl)pyrimidin-4-amine hydrochloride]	≤ 10 nM
COc1cc(CO)cc(F)c1-c1nccc(Nc2cc(N3CCC[C@H](N)C3)c(C#CC3CCOCC3)cn2)n1 [Example 103, (S)-(4-(4-((4-(3-aminopiperidin-1-yl)-5-((tetrahydro-2H-pyran-4-yl)ethynyl)pyridin-2-yl)amino)pyrimidin-2-yl)-3-fluoro-5-methoxyphenyl)methanol hydrochloride]	≤ 10 nM
COc1cccc(F)c1-c1nccc(Nc2cc(N3CCC[C@H](N)C3)c(-c3cnn(C(F)(F)F)c3)cn2)n1 [Example 107, (S)-N-(4-(3-aminopiperidin-1-yl)-5-(1-(trifluoromethyl)-1H-pyrazol-4-yl)pyridin-2-yl)-2-(2-fluoro-6-methoxyphenyl)pyrimidin-4-amine hydrochloride]	≤ 10 nM
COc1cccc(F)c1-c1nccc(Nc2cc(N3CCCC(CF)C3)c(-c3cnn(C4CCOCC4)c3)cn2)n1 (stereo not shown) [Example 85, 2-(2-fluoro-6-methoxyphenyl)-N-(4-(3-(fluoromethyl)piperidin-1-yl)-5-(1-(tetrahydro-2H-pyran-4-yl)-1H-pyrazol-4-yl)pyridin-2-yl)pyrimidin-4-amine]	≤ 10 nM
COc1cccc(F)c1-c1nc(Nc2cc(N3CCC[C@H](O)C3)c(C(N)=O)cn2)ccc1[N+](=O)[O-] [Example 191, 6-((6-(2-fluoro-6-methoxyphenyl)-5-nitropyridin-2-yl)amino)-4-((S)-3-hydroxypiperidin-1-yl)nicotinamide]	≤ 10 nM
COc1cccc(F)c1-c1nc(Nc2cc(N3CCC[C@H](O)C3)c(C#Cc3cnn(C(F)F)c3)cn2)ccc1[N+](=O)[O-] [Example 222, (3S)-1-(5-((1-(difluoromethyl)-1H-pyrazol-4-yl)ethynyl)-2-((6-(2-fluoro-6-methoxyphenyl)-5-nitropyridin-2-yl)amino)pyridin-4-yl)piperidin-3-ol]	≤ 10 nM
COc1cccc(F)c1-c1nccc(Nc2cc(N3CCC[C@H](O)C3)c(C(=O)N[C@@H]3CCN(C)C3)cn2)n1 [Example 192, 6-((2-(2-fluoro-6-methoxyphenyl)pyrimidin-4-yl)amino)-4-((S)-3-hydroxypiperidin-1-yl)-N-((R)-1-methylpyrrolidin-3-yl)nicotinamide]	10 to 50 nM
COc1cccc(F)c1-c1nc(Nc2cc(N3CC[C@@H](F)[C@H](N)C3)c(-c3cnn(C(F)F)c3)cn2)ccc1C#N [Example 321, 6-((4-((3R,4R)-3-amino-4-fluoropiperidin-1-yl)-5-(1-(difluoromethyl)-1H-pyrazol-4-yl)pyridin-2-yl)amino)-2-(2-fluoro-6-methoxyphenyl)nicotinonitrile hydrochloride]	≤ 10 nM
COc1cccc(F)c1-c1nc(Nc2cc(N3CCC[C@H](N)C3)c(-c3cnn(C(F)(F)F)c3)cn2)ccc1N [Example 173, N^2-(4-((S)-3-aminopiperidin-1-yl)-5-(1-(trifluoromethyl)-1H-pyrazol-4-yl)pyridin-2-yl)-6-(2-fluoro-6-methoxyphenyl)pyridin-2,5-diamine hydrochloride]	≤ 10 nM
